Tested on: Panel, CD-IGS and parental rat strains
Assay: Kidney histology of gentamicin- and vehicle-treated rats
From the text: Arrows point to regions of the proximal tabules damage scored as follows: 0=no damage, 1=25% injured tubules, 2=50% injured tubules and protein casts in lumens, 3=severe injury of >50% of tubules, 4=nearly complete necrosis of all tubules. Representative histological samples from the outbred Sprague Dawley rat CD-IGS (Panel B) and the four inbred parental strains Brown Norway, Fischer 344, Lewis and Wistar Kyoto rats (Panel C) are also shown.
We sought to maximize the range of genetic susceptibility to the adverse drug effects across the strains.

Substance: gentamicin
- damage to proximal tubules (F1 hybrids except WKYxBN): ≥ 50%
- kidney damage by histology (LEW×F344 F1 rats, 240 mg/Kg/day): nearly complete necrosis of all proximal tubules
- effect on the kidney (WKY rats): virtually no effect
- injured tubules (WKY rats, both vehicle and gentamicin treated): 25%
- renal damage by histology (WKYxBN F1 strain): little renal damage
- tubules damaged (gentamicin-treated parental strains except WKY): greater than 50%
